Data from patent publication US8795632B2, “Disease animal model for chronic pain” (Astellas Pharma Inc., priority 2008, dated 2014).

Key:
Format in all cases: in vivo, rat
[1] = system: Sprague-Dawley rats; test: Muscle pressure pain threshold value after reserpine single administration; conditions: reserpine 3 mg/kg single s.c.
Method: Male Sprague-Dawley rats (Japan SLC, Hamamatsu, Japan) were used. Measurement of muscle pressure pain threshold value was carried out in the same manner as in Example 1. That is, a pressure stimulus of gradually increasing to 250 g at the maximum was added to the right hind leg gastrocnemius muscle of each rat. […] The measurement was carried out 3 times at each point of time of the measurement, and the average was used as the measurement value.
Influences of the reserpine single administration upon the muscle pressure pain threshold value, skin pain sensation threshold value, cold sensitivity and heat sensitivity were examined in accordance with the following protocol. […] The muscle pressure pain threshold value, skin pain sensation threshold value, cold sensitivity and heat sensitivity before the reserpine treatment (base lines) were measured and then they were divided into a solvent (0.5% acetic acid aqueous solution) group and a reserpine (3 mg/kg) group (the number of animals per group was 6). […] The muscle pressure pain threshold value, skin pain sensation threshold value, cold sensitivity and heat sensitivity of each rat were measured at the points of measurement time of acute phase after administration of the solvent or reserpine (2, 4, 8 and 24 hours) and chronic phase (2, 3, 5, 7, 10, 14 and 21 days).
(§1) All of the measured values were expressed as average value±standard error. […]

[2] = system: dopamine, norepinephrine and serotonin in the spinal cord, thalamus and prefrontal cortex; test: Amounts of dopamine, norepinephrine and serotonin in spinal cord, thalamus and prefrontal cortex after repeated administration of reserpine (HPLC-ECD)
Method: Male Sprague-Dawley rats (7 weeks old, Japan SLC, Hamamatsu, Japan) were used as the animal.
A total of 96 rats were divided into 8 test schedules (collection of samples before administration and 1, 3, 5, 7, 10, 14 or 21 days after the final administration) and further divided each of them into a vehicle (0.5% acetic acid aqueous solution) administration group, a reserpine 0.1 mg/kg administration group, a 0.3 mg/kg administration group and a 1 mg/kg administration group, to 3 rats per group. As shown in Example 1, the vehicle or 0.1, 0.3 or 1 mg/kg of reserpine was repeatedly administered to each rat once a day for 3 days, and the brain and spinal cord were quickly collected 1, 3, 5, 7, 10, 14 or 21 days after the final administration. The thalamus and prefrontal cortex were separated from the brain on an ice-cold dish.
Regarding the sampling before administration, samples were collected before beginning of the repeated administration of vehicle or reserpine. The collected samples were quickly frozen and stored at −80° C. until their use in the measurements. On the day of the measurement, tissues of respective samples were subjected to wet weight measurement, homogenized in 0.2 M perchloric acid/0.1 mM EDTA-2Na solution using an ultrasonic homogenizer. After centrifugation at 15,000 g and at 4° C. for 15 minutes, the supernatant was adjusted to pH 3.5 using sodium acetate and filtered using a filter. Amounts of dopamine, norepinephrine and serotonin in these samples were measured using a high performance liquid chromatography (column: SC-50DS 30, 150 mm, Eicom Co., Ltd., Kyoto, Japan, mobile phase composition: 0.1 M sodium acetate buffer, 0.1 M citrate buffer, pH 3.5, 5 mg/l EDTA-2Na, 190 mg/l sodium octane sulfonic acid, 17% methanol) and an electrochemical detector (ECD-300, Eicom Co., Ltd., Kyoto, Japan). The measurement was carried out under conditions of flow rate 0.5 ml/min, applied voltage 750 mV and 25° C. Amounts of dopamine, norepinephrine and serotonin in the samples were quantified by comparing sample peak areas of respective standards measured on the same day of the sample measurement. All of the measured values were expressed as average value±standard error in the graphs, and unit of the measured values was set to ng/g tissue wet weight.
Statistical difference of the measured values between the reserpine administration group and the vehicle administration group in each test schedule was carried out by the two-way analysis of variance and the Bonferroni method. Probability value (P) of less than 5% was judged as statistically significant (P<0.05 was expressed as * in the graphs). In addition, average values of respective groups at each point of time were expressed as percentages of the average values of corresponding vehicle administration groups.

[3] = system: Sprague-Dawley rats; test: Heat sensitivity (Hargreaves method) after reserpine single administration; conditions: reserpine 3 mg/kg single s.c.
Method: Measurement of the heat sensitivity was carried out by the method of Hargreaves et al. (Hargreaves et al., Pain, 32, 77-88, 1988). A transparent measuring box was put on a glass plate supported with platforms and a rat was put therein and acclimatized. A mobile infrared heat source was arranged under the glass plate and focused on the plantar surface of the right hind paw of the rat. A latency time required for the rat to show a withdrawal reaction of right hind leg from the heat source was measured as a withdrawal latency time and used as the index of heat sensitivity. According to this measuring system, shorter withdrawal latency time represents acceleration of the skin heat sensitivity.
Influences of the reserpine single administration upon the muscle pressure pain threshold value, skin pain sensation threshold value, cold sensitivity and heat sensitivity were examined in accordance with the following protocol. A total of 12 male rats were used. The muscle pressure pain threshold value, skin pain sensation threshold value, cold sensitivity and heat sensitivity before the reserpine treatment (base lines) were measured and then they were divided into a solvent (0.5% acetic acid aqueous solution) group and a reserpine (3 mg/kg) group (the number of animals per group was 6). […]
as §1

[4] = reserpine 0.1 mg/kg s.c. once a day for 3 days, 1 day after final administration
[5] = reserpine 0.3 mg/kg s.c. once a day for 3 days, 1 day after final administration
[6] = reserpine 1 mg/kg s.c. once a day for 3 days, 1 day after final administration
[7] = reserpine 1 mg/kg s.c. once a day for 3 days, after 21 days

COC(=O)[C@H]1[C@H]2C[C@@H]3c4[nH]c5cc(OC)ccc5c4CCN3C[C@H]2C[C@@H](OC(=O)c2cc(OC)c(OC)c(OC)c2)[C@@H]1OC [reserpine]
muscle pressure pain threshold value ([1]; after 2, 3, 5, 7 and 10 days): significantly reduced | muscle pressure pain threshold value ([1]; after 2, 4, 8 and 24 hours): significantly increased | amount of dopamine in the prefrontal cortex, % of the vehicle administration group [2, 4]: 49.1% | amount of dopamine in the spinal cord, % of the vehicle administration group [2, 4]: 46.4% | amount of dopamine in the thalamus, % of the vehicle administration group [2, 4]: 49.2% | amount of norepinephrine in the prefrontal cortex, % of the vehicle administration group [2, 4]: 10.2% | amount of norepinephrine in the spinal cord, % of the vehicle administration group [2, 4]: 19.1% | amount of norepinephrine in the thalamus, % of the vehicle administration group [2, 4]: 43.8% | amount of serotonin in the prefrontal cortex, % of the vehicle administration group [2, 4]: 42.0% | amount of serotonin in the spinal cord, % of the vehicle administration group [2, 4]: 45.4% | amount of serotonin in the thalamus, % of the vehicle administration group [2, 4]: 28.8% | amount of dopamine in the prefrontal cortex, % of the vehicle administration group [2, 5]: 21.4% | amount of dopamine in the spinal cord, % of the vehicle administration group [2, 5]: 26.3% | amount of dopamine in the thalamus, % of the vehicle administration group [2, 5]: 53.2% | amount of norepinephrine in the prefrontal cortex, % of the vehicle administration group [2, 5]: 0.7% | amount of norepinephrine in the spinal cord, % of the vehicle administration group [2, 5]: 2.6% | amount of norepinephrine in the thalamus, % of the vehicle administration group [2, 5]: 6.1% | amount of serotonin in the prefrontal cortex, % of the vehicle administration group [2, 5]: 15.5% | amount of serotonin in the spinal cord, % of the vehicle administration group [2, 5]: 15.7% | amount of serotonin in the thalamus, % of the vehicle administration group [2, 5]: 14.8% | amount of dopamine in the prefrontal cortex, % of the vehicle administration group [2, 6]: 13.4% | amount of dopamine in the spinal cord, % of the vehicle administration group [2, 6]: 18.4% | amount of dopamine in the thalamus, % of the vehicle administration group [2, 6]: 24.5% | amount of norepinephrine in the prefrontal cortex, % of the vehicle administration group [2, 6]: 0.2% | amount of norepinephrine in the spinal cord, % of the vehicle administration group [2, 6]: 0.6% | amount of norepinephrine in the thalamus, % of the vehicle administration group [2, 6]: 1.2% | amount of serotonin in the prefrontal cortex, % of the vehicle administration group [2, 6]: 4.6% | amount of serotonin in the spinal cord, % of the vehicle administration group [2, 6]: 0.1% | amount of serotonin in the thalamus, % of the vehicle administration group [2, 6]: 8.9% | amount of dopamine in the prefrontal cortex, % of the vehicle administration group [2, 7]: 54.9% | amount of dopamine in the spinal cord, % of the vehicle administration group [2, 7]: 70.1% | amount of dopamine in the thalamus, % of the vehicle administration group [2, 7]: 66.5% | amount of norepinephrine in the prefrontal cortex, % of the vehicle administration group [2, 7]: 29.1% | amount of norepinephrine in the spinal cord, % of the vehicle administration group [2, 7]: 59.4% | amount of norepinephrine in the thalamus, % of the vehicle administration group [2, 7]: 46.0% | amount of serotonin in the prefrontal cortex, % of the vehicle administration group [2, 7]: 47.0% | amount of serotonin in the spinal cord, % of the vehicle administration group [2, 7]: 67.8% | amount of serotonin in the thalamus, % of the vehicle administration group [2, 7]: 60.7% | time after administration at which transient acute-phase acceleration of heat sensitivity recovers [3]: 8 h | heat sensitivity: withdrawal latency time ([3]; 2 and 4 hours and 2 and 5 days after administration): significantly shortened
